Reference: patent US20080317728A1, “Lowering Uric Acid to Prevent or Accelerate Recovery of Acute Renal Failure” (UNIVERSITY OF FLORIDA RESEARCH FOUNDATION, INC., priority 2004, published 2008)
Where “and” joins values, the source holds several entries; their conditions need not be identical. Identical values can stand only once.

Legend:
[1] = system: normal rats on normal sodium diet; experiment: Renal histology, afferent arteriole morphology in normal rats; format: in vivo, Sprague-Dawley rats
Protocol: (§1) Hyperuricemia in normal rats on normal sodium diet: To produce hyperuricemia, rats were administered oxonic acid (OA) (Sigma, St Louis Mo., USA) 750 mg/kg body weight by gastric gavage. To prevent the rise of serum uric acid induced by OA, allopurinol (AP) (Sigma, St Louis Mo., USA) was administered in drinking water (150 mg/L). We studied the following groups: Control (n=8); OA (n=7) and OA plus allopurinol (n=9). Systolic blood pressure and serum uric acid were measured at baseline and after 30-33 days of follow-up. Micropuncture studies were performed at 5 weeks.
(§2) Renal Histology: After the micropuncture study kidneys and remnant kidneys were washed by perfusion with PBS and then fixed with 4% paraformaldehyde. Renal biopsies were embedded in paraffin. Four μm sections of fixed tissue were stained with periodic acid Schiff (PAS) reagent. Arteriolar morphology was assessed by indirect peroxidase immunostaining for alpha-smooth muscle actin (DAIO Corp. Carpinteria, Calif., USA). In addition in remnant kidney rats glomerulosclerosis and fibrosis was assessed with Masson's trichrome stain and tubulointerstitial lymphocytes were assessed by indirect immunoperoxidase immunostaining for anti-CD-5.
Quantification of morphology: Quantifications were performed blinded. […] The media/lumen ratio was calculated by the outline/inline relationship.

[2] = system: remnant kidney rats (5/6 nephrectomy); experiment: Renal histology in remnant kidney rats; format: in vivo, Sprague-Dawley rats; conditions: mean±SE
Protocol: (§3) Hyperuricemia in remnant kidney rats on normal sodium diet: Under light anesthesia with ether, 5/6 nephrectomy was performed by removal of the right kidney and selective ligation of 2-3 branches of left renal artery. To induce hyperuricemia rats were given OA (750 mg/kg) by gastric gavage starting the day after the renal ablation. To prevent hyperuricemia AP was administered in the drinking water (150 mg/L). The following groups were studied: 5/6 Nx (n=10); 5/6 Nx+OA (n=12) and 5/6 Nx+OA+AP (n=13). Systolic blood pressure, proteinuria and serum uric acid were measured at baseline and after 25-28 days of follow-up. Micropuncture studies were performed at 4 weeks.
as §2
Quantification of morphology: Quantifications were performed blinded. Arteriolopathy of afferent arterioles was evaluated as previously described (Sanchez-Lozada L G, Tapia E, Avila-Casado C, Soto V, Franco M, Santamaria J, Nakagawa T, Rodriguez-Iturbe B, Johnson R J, Herrera-Acosta J: Mild hyperuricemia induces glomerular hypertension in normal rats. Am. J. Physiol Renal Physiol 283:F1105-F1110, 2002). In brief, only vessels adjacent to glomeruli were selected. For each arteriole, the outline of the vessel and its internal lumen (excluding the endothelium) was generated using computer analysis to calculate the total medial area (outline-inline), in 10 arterioles per biopsy. The media/lumen ratio was calculated by the outline/inline relationship.
Glomerulosclerosis was evaluated in Masson's trichrome stained sections. The degree of sclerosis was scored as follows: in each biopsy the numbers of glomeruli with segmental, mesangial and global sclerosis as well as normal glomerular tufts were assessed. The resulting index in each animal was expressed as the percent of sclerosed glomeruli.
Tubulointerstitial fibrosis analysis was performed by a pathologist unaware of the origin of each kidney section. Evaluation was performed using slides stained with Masson's trichrome. Five noncrossed fields ([…], enlarged ×40) per biopsy were analyzed, using light microscopy (Olympus B-51. Olympus American, Melville, N.Y.) and captured with a digital video camera (CoolSnap Pro, Media Cybernetics Silver Spring, Md.). Each picture was processed on a computer and analyzed using Image-Pro and Photoshop 7 (Adobe Systems, SanJose, Calif.). Using the capabilities of color recognition by this software, a blue color was selected for positive areas. After selection, these areas were quantified (pixel unit) using the histogram function of the software. For each field, the number of positive areas was expressed as a fraction of the tubulointerstitial area (positive areas divided by the overall field area). Finally, for each biopsy, the mean fractional amount of positive areas was obtained by averaging the values obtained from 5 fields examined. […]

[3] = system: remnant kidney rats (5/6 nephrectomy); experiment: Hyperuricemia in remnant kidney rats: serum uric acid, systolic blood pressure, proteinuria, body weight; format: in vivo, Sprague-Dawley rats
Protocol: (§4) Experimental Design: All animal procedures were approved by the Animal Care Committee. Male 300-350 g Sprague-Dawley rats were used in all experiments.
as §3
(§5) Evaluation: In all studies, systolic blood pressure (SBP) was measured by tail cuff sphyngomanometer using an automated system (Narco Biosystems, Houston Tex., USA). All animals were preconditioned for blood pressure measurements 1 week before each experiment. Proteinuria was determined by turbidimetry by the method of trichloroacetic acid (Henry R J, Sobel Ch, Segalove M: Turbidimetric determination of proteins with sulfosalicylic and trichloroacetic acids. Proc Soc Exp Biol Med 92:748-751, 1956). Serum uric acid was measured by colorimetric phosphotungstic acid method using a commercial kit (Wiener Lab, Argentina).
(§6) Statistical analysis. Values are expressed as mean±standard error (SE). Differences between groups were evaluated by ANOVA with appropriate correction for multiple comparisons (Bonferroni). The relation between variables was assessed by correlation analysis.

[4] = system: remnant kidney rats (5/6 nephrectomy); experiment: Micropuncture (glomerular hemodynamics) in remnant kidney rats; format: in vivo, Sprague-Dawley rats; parameters: SNGFR lower than RK control group / glomerular plasma flow lower than RK control group / Kf lower than RK control group / afferent resistance higher compared to RK control / efferent resistance higher compared to RK control: concentration or dose not given beside the values
Protocol: as §4, §3
(§7) Micropuncture: Animals were anesthetized with pentobarbital sodium (30 mg/kg ip) and placed on a thermoregulated table to maintain body temperature at 37° C. Trachea, jugular veins, femoral arteries, and the left ureter were catheterized with polyethylene tubing (PE-240, PE-50, and PE-10). The left kidney was exposed, placed in a Lucite holder, sealed with agar, and covered with Ringer's solution. Mean arterial pressure (MAP) was monitored with a pressure transducer (Model p23 db; Gould, San Juan, PR) and recorded on a polygraph (Grass Instruments, Quincy, Mass., USA). Blood samples were taken periodically and replaced with blood from a donor rat. Rats were maintained under euvolemic conditions by infusion of 10 ml/kg of body weight of isotonic rat plasma during surgery, followed by an infusion of 25% polyfructosan, at 2.2 ml/h (Inutest, Laevosan-Gesellschaft, Linz, Austria). After 60 min, five to six 3-min collection samples of proximal tubular fluid were obtained to determine flow rate and polyfructosan concentration. Intratubular pressure under free-flow and stop-flow conditions and peritubular capillary pressure were measured in other proximal tubules with a servo-null device (Servo Nulling Pressure System; Instrumentation for Physiology and Medicine, San Diego, Calif., USA). Polyfructosan was measured in plasma samples. Glomerular colloid osmotic pressure was estimated in protein from blood of the femoral artery (Ca) and surface efferent arterioles (Ce). Polyfructosan concentrations were determined by the technique of Davidson and Sackner (Davidson W D, Sackner Mass.: Simplification of the Antrhone Method for the Determination of Inulin in Clearance Studies. J. Lab Clin. Med. 62:351-356, 1963). The volume of fluid collected from individual proximal tubules was estimated from the length of the fluid column in a constant bore capillary tube of known internal diameter. Concentration of tubular polyfructosan was measured by the method of Vurek and Pegram (Vurek G G, Pegram S E: Fluorometric method for the determination of nanogram quantities of inulin. Ann. Biochem 16:409-419, 1966). Protein concentration in afferent and efferent samples was determined according to the method of Viets et al. (Viets J W, Deen W M, Troy J L, Brenner B M: Determination of serum protein concentration in nanoliter blood samples using fluorescamine or 9-phthalaldehyde. Anal. Biochem 88:513-521, 1978). MAP, GFR, single-nephron GFR (SNGFR), glomerular capillary hydrostatic pressure (Pgc), single-nephron plasma flow (QA), afferent (RA) and efferent (RE) resistances, and Kf, were calculated according to equations given elsewhere (Baylis C, Deen W M, Myers B D, Brenner B M: Effects of some vasodilator drugs on transcapillary fluid exchange in renal cortex. Am. J. Physiol 230:1148-1158, 1976).
as §6

[5] = system: Male Sprague-Dawley rats; experiment: Hyperuricemia and serum nitrites/nitrates (NOx) in rats, Example 2; format: in vivo; conditions: for serum uric acid: OA 750 mg/kg/day gavage, AP 150 mg/L drinking water; for Serum nitrites and nitrates (NOx): chemiluminescence
Protocol: Male Sprague-Dawley rats were housed in standard conditions and fed normal diets. We induced hyperuricemia with an uricase inhibitor, oxonic acid (OA; 750 mg/kg/day), by gavage, with control rats receiving vehicle. Allopurinol (AP) was used to block hyperuricemia by placing AP in the drinking water (150 mg/L). Rats were divided into four groups: (1) Control, (2) AP only, (3) OA only, and (4) OA+AP. Systolic blood pressure was measured using a tail-cuff sphygmomanometer. The amount of drinking water consumed and changes in body weight were noted. Rats were sacrificed at one and seven days. Serum was analyzed for uric acid concentration and nitrites/nitrates (NOx) by chemiluminescence method. (Prabhakar SS: Inhibition of mesangial iNOS by reduced extracellular pH is associated with uncoupling of NADPH oxidation. Kidney Int 61:2015-2024, 2002). Statistical analysis between subgroups was performed using ANOVA.

[6] = system: normal rats on normal sodium diet; experiment: Micropuncture (glomerular hemodynamics) in normal rats on normal sodium diet; format: in vivo, Sprague-Dawley rats
Protocol: as §4, §1, §7, §6

[7] = system: normal rats on normal sodium diet; experiment: Hyperuricemia in normal rats on normal sodium diet: serum uric acid, systolic blood pressure, body weight; format: in vivo, Sprague-Dawley rats
Protocol: as §4, §1, §5, §6

[8] = micropuncture at 4 weeks, mean±SE
[9] = micropuncture at 5 weeks, mean±SE

## Oc1ncnc2[nH]ncc12 [AP, allopurinol]
[1]; with oxonic acid
  effect on thickening of afferent arterioles: prevented
[2]
  AA M/L (afferent arteriole media to lumen ratio): 1.8
[3]; concomitant with oxonic acid
  effect on SBP: only a marginal effect
  effect on hyperuricemia: prevented
  effect on proteinuria: prevented
[4]; AP with oxonic acid, in the presence of systemic hypertension
  PGC, in words: normal and significantly lower than RK hyperuricemic rats
[4]; [8]
  SNGFR (single-nephron GFR): 53 nL/min
[5]; rats treated with AP alone
  change in NOx concentration: did not show a significant change
  change in serum UA concentration: did not show a significant change
[5]; rats, 1 day
  serum uric acid: 1.52 ± 0.3 mg/dL
  Serum nitrites and nitrates (NOx): 17.4 ± 0.8 µmol/L
[5]; rats, 7 days
  serum uric acid: 0.3 ± 0.2 mg/dL
  Serum nitrites and nitrates (NOx): 25.0 ± 0.8 µmol/L
[6]; concomitant with oxonic acid
  effect on glomerular hemodynamic alterations of hyperuricemia: prevented these alterations
[7]; concurrent with oxonic acid
  effect on the hypertension induced by oxonic acid: prevented
  effect on the increase of serum uric acid induced by oxonic acid: prevented

## O=C(O)c1nc(=O)[nH]c(=O)[nH]1 [OA, oxonic acid]
[1]; after micropuncture, mean±SE
  AA M/L (afferent arteriole media/lumen ratio): 5.1 ± 0.6
[2]; Masson's trichrome
  Glomerulosclerosis: 0.33 ± 0.07%
  TI Fibrosis: 780.2 ± 55.0 arbitrary units
[2]; immunoperoxidase
  TI CD5 + (tubulointerstitial infiltration of CD5 positive cells): 26.1 cells/mm^2 and 26.1 ± 2.99 cells/mm^2
[2]
  AA M/L (afferent arteriole media to lumen ratio): 6.4 ± 0.37
[2]; listed as Oxonic acid
  AA M/L (afferent arteriole media to lumen ratio): 6.4
[3]; 25-28 days, mean±SE
  Uprot (proteinuria): 246 ± 29 mg/day
[3]; OA 750 mg/kg gavage, AP 150 mg/L drinking water, 25-28 days, mean±SE
  SUA (serum uric acid): 4.5 ± 0.4 mg/dL
[3]; tail cuff, 25-28 days, mean±SE
  SBP (systolic blood pressure): 191 ± 10 mmHg
[3]; vs RK control
  additional rise of proteinuria: two fold
  further increase of SBP: 30 mmHg
  increase of serum uric acid: two fold
[4]
  Kf lower than RK control group: 50%
  SNGFR lower than RK control group: 40%
  afferent resistance higher compared to RK control: 120%
  efferent resistance higher compared to RK control: 80%
  glomerular plasma flow lower than RK control group: 40%
[4]; [8]
  GFR: 0.4 ± 0.1 mL/min
  KF (ultrafiltration coefficient): 0.02 nl/s/mmHg and 0.024 ± 0.003 nl/s/mmHg
  MAP (mean arterial pressure): 184 ± 6 mmHg
  PGC (glomerular capillary pressure): 62 mmHg and 62 ± 1 mmHg
  QA (glomerular plasma flow): 147 nL/min and 146.5 ± 20.4 nL/min
  RA (afferent resistance): 4.6 dyn/s/cm^−5 and 4.55 ± 0.66 dyn/s/cm^−5
  RE (efferent resistance): 1.8 dyn/s/cm^−5 and 1.83 ± 022 dyn/s/cm^−5
  SNGFR (single-nephron GFR): 40.6 nL/min and 40.7 ± 6.0 nL/min
[5]; hyperuricemic rats at both 1 day and 7 days
  reduction of serum NOx vs control: 40-50%
[5]; rats, 1 day
  serum uric acid: 1.7 ± 0.7 mg/dL
  Serum nitrites and nitrates (NOx): 15.6 ± 0.4 µmol/L
[5]; rats, 7 days
  serum uric acid: 1.8 ± 0.4 mg/dL
  Serum nitrites and nitrates (NOx): 14.6 ± 1.1 µmol/L
[5]; rats, 7 days, tail cuff
  systolic blood pressure: 178±18 mm Hg
[6]; hyperuricemic vs control
  afferent resistance higher: 45%
  decrease of SNGFR: 35%
  efferent resistance higher: 64%
[6]; [9]
  GFR: 0.71 ± 0.1 mL/min
  KF (ultrafiltration coefficient): 0.027 ± 0.002 nl/s/mmHg
  MAP (mean arterial pressure): 131 ± 4 mmHg
  PGC (glomerular capillary hydrostatic pressure): 56 ± 2 mmHg
  QA (single-nephron plasma flow): 66.1 ± 7.2 nL/min
  RA (afferent resistance): 4.82 ± 0.67 dyn/s/cm^−5
  RE (efferent resistance): 2.83 ± 0.19 dyn/s/cm^−5
  SNGFR (single-nephron GFR): 17.8 ± 2 nL/min
[7]; normal salt diet, OA 750 mg/kg gavage, AP 150 mg/L drinking water, 30-33 days, mean±SE
  SUA (serum uric acid): 5.4 ± 0.2 mg/dL
[7]; normal salt diet, tail cuff, 30-33 days, mean±SE
  SBP (systolic blood pressure): 134 ± 3 mmHg
[7]; vs control
  increment of serum uric acid: two-fold
